Paper PMC11243693, “Synthesis and Biological Evaluation of New Compounds with Nitroimidazole Moiety” (Molecules, 2024)
≈ marks a conversion by molar mass, not a printed value.

Experiments:
Format in all cases: cell-based
[1] = tested on: Candida lusitaniae ATCC 3449; assay: Broth microdilution, C. lusitaniae ATCC 3449; details: Cl 3449
Protocol: (§1) The antibacterial activity of the obtained thiosemicarbazides and hydrazide–hydrazones was determined by evaluating their ability to inhibit microbial growth in vitro using the broth microdilution method, according to the guidelines of the European Committee on Antimicrobial Susceptibility Testing (EUCAST). The method involved the preparation of microbial suspensions with a standardized density of 0.5 on the McFarland scale (equivalent to 1.5 × 10^8 colony-forming units/mL for bacteria and […] for fungi). A solution of the test substances was then prepared (initial concentration 1000 µg/mL, diluted in sterile Mueller-Hinton broth for bacteria or Mueller-Hinton with 2% glucose for fungi). The test was carried out in 96-well polystyrene flat-bottom plates (Medlab, Poland) with 100 µL of appropriate sterile microbiological medium in each well. The first wells were filled with 200 µL of the test substance, diluted to the initial concentration, and then double-decreasing dilutions were made under aseptic conditions using an automatic pipette. The final step was the addition of a 10-fold diluted microbial suspension of 2 µL. At the same time, the following controls were included: (a) medium control (100 µL of sterile medium without microorganisms added), (b) microbial viability control, (c) test substance control (dilutions without added micro-organisms), (d) positive control of the drug used in the clinic. The plates thus prepared were incubated for 18 ± 2 h at 35 ± 2 °C under conditions optimal for the growth of the test microorganisms. After incubation, the spectrophotometric absorbance at 570 nm in each well of the plate was read. The aim of this part of the study was to determine two parameters: the minimum inhibitory concentration (MIC) and the minimum bactericidal or fungicidal concentration (MBC/MFC) of the test compound. […] The MBC value was determined by adding 5 µL of the contents of each well of the plate to solid sterile MHA or MHA + 2%glc medium for bacteria and fungi, respectively. The area on the plate where 99.9% inhibition of microbial growth was observed indicated the lethal concentration. In addition, the quotient MBC(MFC)/MIC could be determined to assess the nature of the activity of the test substance. If MBC(MFC)/MIC was <4, the test substance was bactericidal/fungicidal, whereas if MBC(MFC)/MIC was ≥4, it was bacteriostatic/fungistatic. Amoxicillin (Glentham Life Sciences, USA) and nystatin (Glentham Life Sciences, USA) were used as the controls for this assay.
(§2) The test was performed either on bacteria, comprising: Gram-positive (Staphylococcus aureus ATCC 25923, Staphylococcus aureus ATCC 6538, Staphylococcus aureus ATCC 43300 methicillin-resistant MRSA, Staphylococcus epidermidis ATCC 12228, Micrococcus luteus ATCC 10240, Bacillus subtilis ATCC 6633, Bacillus cereus ATCC 10876) and Gram-negative (Escherichia coli ATCC 25922, Pseudomonas aeruginosa ATCC 27853, Proteus mirabilis ATCC 12453, Klebsiella pneumoniae ATCC 13883) or yeast (Candida parapsilosis ATCC 22019, Candida glabrata ATCC 90030, Candida krusei ATCC 14243, Candida glabrata ATCC 15126, Candida tropicalis ATCC 1369, Candida auris CDC B11903, Candida lusitaniae ATCC 3449) reference strains from the American Type Culture Collection (ATCC) or the Centers for Disease Control and Prevention (CDC).

[2] = tested on: Candida glabrata ATCC 15126; assay: Broth microdilution, C. glabrata ATCC 15126; details: Cg 15126
Protocol: as §1, §2

[3] = tested on: Candida auris CDC B11903; assay: Broth microdilution, C. auris CDC B11903; details: Ca B11903
Protocol: as §1, §2

[4] = tested on: Candida glabrata ATCC 90030; assay: Broth microdilution, C. glabrata ATCC 90030; details: Cg 90030
Protocol: as §1, §2

[5] = tested on: Candida krusei ATCC 14243; assay: Broth microdilution, C. krusei ATCC 14243; details: Ck 14243
Protocol: as §1, §2

[6] = tested on: Staphylococcus aureus ATCC 25923; assay: Broth microdilution, S. aureus ATCC 25923; details: Sa 25923
Protocol: as §1, §2

[7] = tested on: Candida tropicalis ATCC 1369; assay: Broth microdilution, C. tropicalis ATCC 1369; details: Ct 1369
Protocol: as §1, §2

[8] = tested on: Staphylococcus aureus ATCC 43300 methicillin-resistant MRSA; assay: Broth microdilution, S. aureus ATCC 43300 MRSA; details: Sa 43300 MRSA
Protocol: as §1, §2

[9] = tested on: Micrococcus luteus ATCC 10240; assay: Broth microdilution, M. luteus ATCC 10240; details: Ml 10240; for MBC/MIC Ratio: <4 bactericidal, ≥4 bacteriostatic
Protocol: as §1, §2

[10] = tested on: Staphylococcus epidermidis ATCC 12228; assay: Broth microdilution, S. epidermidis ATCC 12228; details: Se 12228; for MBC/MIC Ratio: <4 bactericidal, ≥4 bacteriostatic
Protocol: as §1, §2

[11] = tested on: Bacillus subtilis ATCC 6633; assay: Broth microdilution, B. subtilis ATCC 6633; details: Bs 6633; for MBC/MIC Ratio: <4 bactericidal, ≥4 bacteriostatic
Protocol: as §1, §2

[12] = tested on: Candida parapsilosis ATCC 22019; assay: Broth microdilution, C. parapsilosis ATCC 22019; details: Cp 22019
Protocol: as §1, §2

[13] = tested on: Bacillus cereus ATCC 10876; assay: Broth microdilution, B. cereus ATCC 10876; details: Bc 10876; for MBC/MIC Ratio: <4 bactericidal, ≥4 bacteriostatic
Protocol: as §1, §2

[14] = tested on: Staphylococcus aureus ATCC 6538; assay: Broth microdilution, S. aureus ATCC 6538; details: Sa 6538
Protocol: as §1, §2

With `Cn1cc([N+](=O)[O-])nc1C(=O)NNC(=S)Nc1ccc(Cl)cc1` [Compound 5] the MIC [1] was greater than 1000 µg/mL, the MIC [2] was greater than 1000 µg/mL and the MIC [3] was greater than 1000 µg/mL. For the same compound, the MIC [4] was greater than 1000 µg/mL, the MIC [5] was greater than 1000 µg/mL and the MBC [6] was greater than 1000 µg/mL. It also gave an MIC [6] of 62.5 µg/mL (≈ 176 µM), an MFC [7] greater than 1000 µg/mL and an MIC [7] of 500 µg/mL (≈ 1410 µM). It also gave an MBC [8] greater than 1000 µg/mL, an MIC [8] of 125 µg/mL (≈ 352 µM) and an MBC [9] of 125 µg/mL (≈ 352 µM). For the same compound, the MIC [9] was 125 µg/mL (≈ 352 µM), the “MBC/MIC Ratio” value [9] was 1 and the MBC [10] was 125 µg/mL (≈ 352 µM). The MIC [10] was 125 µg/mL (≈ 352 µM), the “MBC/MIC Ratio” value [10] was 1 and the MBC [11] was 62.5 µg/mL (≈ 176 µM). For the same compound, the MIC [11] was 62.5 µg/mL (≈ 176 µM), the “MBC/MIC Ratio” value [11] was 1 and the MFC [12] was greater than 1000 µg/mL. For the same compound, the MIC [12] was 62.5 µg/mL (≈ 176 µM), the MBC [13] was 250 µg/mL (≈ 705 µM) and the MIC [13] was 250 µg/mL (≈ 705 µM). For the same compound, the “MBC/MIC Ratio” value [13] was 1, the MBC [14] was greater than 1000 µg/mL and the MIC [14] was 125 µg/mL (≈ 352 µM).
In the case of `Cn1cc([N+](=O)[O-])nc1C(=O)NNC(=S)Nc1ccccc1F` [Compound 6], the MIC [1] was greater than 1000 µg/mL, the MIC [2] was greater than 1000 µg/mL and the MIC [3] was greater than 1000 µg/mL. The MIC [4] was greater than 1000 µg/mL, the MIC [5] was greater than 1000 µg/mL and the MBC [6] was greater than 1000 µg/mL. For the same compound, the MIC [6] was 250 µg/mL (≈ 739 µM), the MFC [7] was greater than 1000 µg/mL and the MIC [7] was 250 µg/mL (≈ 739 µM). The MBC [8] was greater than 1000 µg/mL, the MIC [8] was 1000 µg/mL (≈ 2960 µM) and the MBC [9] was 250 µg/mL (≈ 739 µM). For the same compound, the MIC [9] was 250 µg/mL (≈ 739 µM), the “MBC/MIC Ratio” value [9] was 1 and the MBC [10] was 500 µg/mL (≈ 1480 µM). For the same compound, the MIC [10] was 500 µg/mL (≈ 1480 µM), the “MBC/MIC Ratio” value [10] was 1 and the MBC [11] was 500 µg/mL (≈ 1480 µM). For the same compound, the MIC [11] was 250 µg/mL (≈ 739 µM), the “MBC/MIC Ratio” value [11] was 2 and the MFC [12] was greater than 1000 µg/mL. For the same compound, the MIC [12] was 1000 µg/mL (≈ 2960 µM), the MBC [13] was 1000 µg/mL (≈ 2960 µM) and the MIC [13] was 500 µg/mL (≈ 1480 µM). For the same compound, the “MBC/MIC Ratio” value [13] was 2, the MBC [14] was greater than 1000 µg/mL and the MIC [14] was 1000 µg/mL (≈ 2960 µM).
With `Cc1ccccc1NC(=S)NNC(=O)c1nc([N+](=O)[O-])cn1C` [Compound 15] the MIC [1] was greater than 1000 µg/mL, the MIC [2] was greater than 1000 µg/mL and the MIC [3] was greater than 1000 µg/mL. The MIC [4] was greater than 1000 µg/mL, the MIC [5] was greater than 1000 µg/mL and the MBC [6] was greater than 1000 µg/mL. For the same compound, the MIC [6] was 500 µg/mL (≈ 1500 µM), the MFC [7] was greater than 1000 µg/mL and the MIC [7] was 500 µg/mL (≈ 1500 µM). For the same compound, the MBC [8] was greater than 1000 µg/mL, the MIC [8] was 250 µg/mL (≈ 748 µM) and the MBC [9] was 500 µg/mL (≈ 1500 µM). For the same compound, the MIC [9] was 500 µg/mL (≈ 1500 µM), the “MBC/MIC Ratio” value [9] was 1 and the MBC [10] was 500 µg/mL (≈ 1500 µM). The MIC [10] was 500 µg/mL (≈ 1500 µM), the “MBC/MIC Ratio” value [10] was 1 and the MBC [11] was 1000 µg/mL (≈ 2990 µM). For the same compound, the MIC [11] was 1000 µg/mL (≈ 2990 µM), the “MBC/MIC Ratio” value [11] was 1 and the MIC [12] was greater than 1000 µg/mL. The MBC [13] was 500 µg/mL (≈ 1500 µM), the MIC [13] was 500 µg/mL (≈ 1500 µM) and the “MBC/MIC Ratio” value [13] was 1. The MBC [14] was greater than 1000 µg/mL and the MIC [14] was 250 µg/mL (≈ 748 µM).
